Source: ChEMBL document CHEMBL1201862, “PubChem BioAssay data set” (2004)
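Interpolation was linear, between the two tested concentrations surrounding the appropriate level; five concentrations were tested over 48 hours in 96-well plates. GI50: concentration for 50% inhibition of growth.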 Active and inactive are the calls of the source. Rule as the data show it: active = GI50 up to about 1.1 µM and inactive = higher.

What was measured:
Experiment in all cases: NCI-60 cell line screen, 48 h
[1] = tested on: CAKI-1
[2] = tested on: EKVX
[3] = tested on: HCT-15
[4] = tested on: HOP-62
[5] = tested on: HT-29
[6] = tested on: KM-20L2
[7] = tested on: NCI-H460
[8] = tested on: NCI-H522
[9] = tested on: OVCAR-5
[10] = tested on: RPMI-8226
[11] = tested on: SF-268
[12] = tested on: SF-295
[13] = tested on: SK-MEL-2
[14] = tested on: SK-MEL-5
[15] = tested on: TK-10

CCCCCCCCCCCOC(=S)NC(C)C
GI50 [1]: 19 µM (inactive) | GI50 [2]: 20.9 µM (inactive) | GI50 [3]: 17.5 µM | GI50 [4]: 20.1 µM (inactive) | GI50 [5]: 17.1 µM (inactive) | GI50 [6]: 16 µM (inactive) | GI50 [7]: 21.3 µM (inactive) | GI50 [8]: 18.2 µM (inactive) | GI50 [9]: 24.7 µM (inactive) | GI50 [10]: 14 µM (inactive) | GI50 [11]: 21.2 µM (inactive) | GI50 [12]: 21 µM (inactive) | GI50 [13]: 19.2 µM (inactive) | GI50 [14]: 17 µM (inactive) | GI50 [15]: 28.2 µM (inactive)

COC1OC(C)C(OC(=O)C(C)(C)C)C(OS(=O)(=O)c2ccc(C)cc2)C1OS(=O)(=O)c1ccc(C)cc1 (stereo unspecified)
GI50 [1]: 5.9 µM (inactive) | GI50 [3]: > 100 µM | GI50 [4]: > 100 µM (inactive) | GI50 [5]: > 100 µM (inactive) | GI50 [6]: > 100 µM (inactive) | GI50 [7]: > 100 µM (inactive) | GI50 [8]: > 100 µM (inactive) | GI50 [9]: > 100 µM (inactive) | GI50 [10]: > 100 µM (inactive) | GI50 [11]: > 100 µM (inactive) | GI50 [12]: > 100 µM (inactive) | GI50 [13]: > 100 µM (inactive) | GI50 [14]: > 100 µM (inactive)

NC(=O)N1N=C2c3ccccc3CC[C@@H]2C1c1ccccc1 (stereo partly specified)
GI50 [1]: > 100 µM (inactive) | GI50 [2]: > 100 µM (inactive) | GI50 [3]: > 100 µM | GI50 [4]: > 100 µM (inactive) | GI50 [5]: > 100 µM (inactive) | GI50 [6]: > 100 µM (inactive) | GI50 [7]: > 100 µM (inactive) | GI50 [8]: 61 µM (inactive) | GI50 [9]: > 100 µM (inactive) | GI50 [10]: 63.2 µM (inactive) | GI50 [11]: > 100 µM (inactive) | GI50 [12]: > 100 µM (inactive) | GI50 [13]: > 100 µM (inactive) | GI50 [14]: 88.7 µM (inactive) | GI50 [15]: > 100 µM (inactive)

COc1ccc(/C=C2\CN(C)Cc3c2nc(N)nc3-c2ccc(OC)cc2)cc1
GI50 [1]: > 100 µM (inactive) | GI50 [2]: 33.6 µM (inactive) | GI50 [4]: 64.1 µM (inactive) | GI50 [6]: 82 µM (inactive) | GI50 [7]: > 100 µM (inactive) | GI50 [8]: 41.3 µM (inactive) | GI50 [9]: > 100 µM (inactive) | GI50 [10]: 24.6 µM (inactive) | GI50 [11]: > 100 µM (inactive) | GI50 [12]: > 100 µM (inactive) | GI50 [13]: 83.4 µM (inactive) | GI50 [14]: 26.9 µM (inactive) | GI50 [15]: > 100 µM (inactive)

NC1N=Nc2ccccc21 (stereo unspecified)
GI50 [1]: > 100 µM (inactive) | GI50 [2]: > 100 µM (inactive) | GI50 [3]: > 100 µM | GI50 [4]: > 100 µM (inactive) | GI50 [5]: > 100 µM (inactive) | GI50 [6]: > 100 µM (inactive) | GI50 [7]: > 100 µM (inactive) | GI50 [8]: > 100 µM (inactive) | GI50 [9]: > 100 µM (inactive) | GI50 [10]: > 100 µM (inactive) | GI50 [11]: > 100 µM (inactive) | GI50 [12]: > 100 µM (inactive) | GI50 [13]: > 100 µM (inactive) | GI50 [15]: > 100 µM (inactive)

CCCC1(CC(=O)O)OCCc2c1[nH]c1ccccc21 (stereo unspecified) [PRODOLIC ACID]
GI50 [1]: > 100 µM (inactive) | GI50 [2]: > 100 µM (inactive) | GI50 [3]: > 100 µM | GI50 [4]: > 100 µM (inactive) | GI50 [6]: > 100 µM (inactive) | GI50 [9]: > 100 µM (inactive) | GI50 [10]: > 100 µM (inactive) | GI50 [11]: > 100 µM (inactive) | GI50 [12]: > 100 µM (inactive) | GI50 [13]: > 100 µM (inactive) | GI50 [14]: > 100 µM (inactive) | GI50 [15]: > 100 µM (inactive)

C[Si](C)(C)c1ccc(CC2(Cc3ccc([Si](C)(C)C)cc3)CCNC2)cc1
GI50 [1]: 2.39 µM (inactive) | GI50 [2]: 6.75 µM (inactive) | GI50 [3]: 2.16 µM | GI50 [4]: 2.94 µM (inactive) | GI50 [5]: 2.04 µM (inactive) | GI50 [6]: 1.9 µM (inactive) | GI50 [7]: 2.04 µM (inactive) | GI50 [8]: 1.78 µM (inactive) | GI50 [9]: 4.67 µM (inactive) | GI50 [11]: 2.22 µM (inactive) | GI50 [12]: 2.52 µM (inactive) | GI50 [13]: 1.76 µM (inactive) | GI50 [14]: 1.9 µM (inactive) | GI50 [15]: 21 µM (inactive)

COc1ccc2c(c1OC)C(=O)C2
GI50 [2]: > 100 µM (inactive) | GI50 [3]: > 100 µM | GI50 [4]: > 100 µM (inactive) | GI50 [5]: > 100 µM (inactive) | GI50 [6]: > 100 µM (inactive) | GI50 [7]: > 100 µM (inactive) | GI50 [8]: > 100 µM (inactive) | GI50 [10]: > 100 µM (inactive) | GI50 [11]: > 100 µM (inactive) | GI50 [12]: > 100 µM (inactive) | GI50 [13]: > 100 µM (inactive) | GI50 [14]: > 100 µM (inactive) | GI50 [15]: > 100 µM (inactive)

COc1ccc(/C=C/c2cc(OC)c(O[Si](C)(C)C(C)(C)C)c(OC)c2)cc1
GI50 [1]: > 100 µM (inactive) | GI50 [2]: > 100 µM (inactive) | GI50 [3]: > 100 µM | GI50 [4]: > 100 µM (inactive) | GI50 [5]: > 100 µM (inactive) | GI50 [6]: > 100 µM (inactive) | GI50 [7]: 42.2 µM (inactive) | GI50 [8]: > 100 µM (inactive) | GI50 [9]: 64.9 µM (inactive) | GI50 [10]: 45 µM (inactive) | GI50 [11]: > 100 µM (inactive) | GI50 [13]: > 100 µM (inactive) | GI50 [14]: 54.1 µM (inactive)

Cc1nn(-c2nc3ccccc3s2)c2c1C(=O)c1ccccc1-2
GI50 [2]: > 100 µM (inactive) | GI50 [3]: > 100 µM | GI50 [4]: > 100 µM (inactive) | GI50 [5]: > 100 µM (inactive) | GI50 [6]: > 100 µM (inactive) | GI50 [7]: > 100 µM (inactive) | GI50 [8]: > 100 µM (inactive) | GI50 [9]: > 100 µM (inactive) | GI50 [10]: > 100 µM (inactive) | GI50 [11]: > 100 µM (inactive) | GI50 [12]: > 100 µM (inactive) | GI50 [13]: > 100 µM (inactive) | GI50 [14]: > 100 µM (inactive) | GI50 [15]: > 100 µM (inactive)
